Test results as given in patent publication US6441195B1, “Substituted sulphonylamino(thio) carbonyl compounds” (Bayer Aktiengesellschaft, priority 1995, dated 2002).

Legend:
Format in all cases: in vivo
Digitaria = assay: Post-emergence test/greenhouse, Digitaria; conditions: greenhouse, after three weeks
Description: (§1) Solvent: 5 parts by weight of acetone
(§2) Emulsifier: 1 part by weight of alkylaryl polyglycol ether
(§3) To produce a suitable preparation of active compound, 1 part by weight of active compound is mixed with the stated amount of solvent, the stated amount of emulsifier is added and the concentrate is diluted with water to the desired concentration.
(§4) Test plants which have a height of 5-15 cm are sprayed with the preparation of the active compound in such a way as to apply the particular amounts of active compound desired per unit area. The concentration of the spray liquor is chosen so that the particular amounts of active compound desired are applied in 2000 l of water/ha.
(§5) After three weeks, the degree of damage to the plants is rated in % damage in comparison to the development of the untreated control.
(§6) 0%=no action (like untreated control)

Stellaria = assay: Post-emergence test/greenhouse, Stellaria; conditions: greenhouse, after three weeks
Description: as §1, §2, §3, §4, §5, §6

Matricaria [1] = assay: Pre-emergence test/Greenhouse, Matricaria; conditions: after three weeks
Summary of the method: (§7)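 Seeds sown in normal soil were watered about 24 h later with an aqueous emulsion of compound (solvent plus emulsifier), keeping water volume per area constant so dose is set by application rate per unit area. Damage was rated after three weeks as % versus untreated control (0% = no action).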

Matricaria [2] = assay: Post-emergence test/greenhouse, Matricaria; conditions: greenhouse, after three weeks
Description: as §1, §2, §3, §4, §5, §6

weeds [3] = assay: Post-emergence test (greenhouse), activity against weeds; conditions: in words
Description: as §1, §2, §3, §4, §5, §6

Gallium = assay: Post-emergence test/greenhouse, Gallium; conditions: greenhouse, after three weeks
Description: as §1, §2, §3, §4, §5, §6

Amaranthus = assay: Post-emergence test/greenhouse, Amaranthus; conditions: greenhouse, after three weeks
Description: as §1, §2, §3, §4, §5, §6

Lolium [4] = assay: Pre-emergence test/Greenhouse, Lolium; conditions: after three weeks
Summary of the method: as §7

Echinochloa = assay: Post-emergence test/greenhouse, Echinochloa; conditions: greenhouse, after three weeks
Description: as §1, §2, §3, §4, §5, §6

Sorghum [5] = assay: Pre-emergence test/Greenhouse, Sorghum; conditions: after three weeks
Summary of the method: as §7

Lolium [6] = assay: Post-emergence test/greenhouse, Lolium; conditions: greenhouse, after three weeks
Description: as §1, §2, §3, §4, §5, §6

Solanum = assay: Pre-emergence test/Greenhouse, Solanum; conditions: after three weeks
Summary of the method: as §7

Maize = assay: Pre-emergence test/Greenhouse, Maize; conditions: in vivo
Summary of the method: as §7

Poa = assay: Pre-emergence test/Greenhouse, Poa; conditions: after three weeks
Summary of the method: as §7

Ambrosia = assay: Pre-emergence test/Greenhouse, Ambrosia; conditions: after three weeks
Summary of the method: as §7

Sorghum [7] = assay: Post-emergence test/greenhouse, Sorghum; conditions: greenhouse, after three weeks
Description: as §1, §2, §3, §4, §5, §6

weeds [8] = assay: Pre-emergence test (greenhouse), activity against weeds; conditions: in words
Summary of the method: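 Compound formulated in acetone with alkylaryl polyglycol ether emulsifier, diluted in water, and watered onto soil about 24 h after sowing, dosed by application rate per unit area. Damage rated after three weeks as % versus untreated control (0% = no action).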

Soya beans = assay: Pre-emergence test/Greenhouse, Soya beans; conditions: in vivo
Summary of the method: as §7

| Structure (SMILES) | degree of damage, Digitaria (Digitaria; 60 g of ai./ha) | degree of damage, Stellaria (Stellaria; 60 g of ai./ha) | degree of damage, Matricaria (Matricaria [2]; 60 g of ai./ha) | activity against weeds (weeds [3]) | degree of damage, Gallium (Gallium; 60 g of ai./ha) | degree of damage, Amaranthus (Amaranthus; 60 g of ai./ha) | degree of damage, Echinochloa (Echinochloa; 60 g of ai./ha) | degree of damage, Lolium (Lolium [6]; 60 g of ai./ha) | degree of damage to the plants (% damage vs untreated control), Maize (Maize) | degree of damage, Sorghum (Sorghum [7]; 60 g of ai./ha) | activity against weeds (weeds [8]) | degree of damage to the plants (% damage vs untreated control), Soya beans (Soya beans) | also measured |
| --- | --- | --- | --- | --- | --- | --- | --- | --- | --- | --- | --- | --- | --- |
| CCOC(=O)c1scc(C)c1S(=O)(=O)NC(=O)n1nc(OCC)n(C2CC2)c1=O [Example 63] | 50% | 100% | 95% | very strong activity against weeds | 90% | 100% | 90% | 70% | 10% | 80% | very strong activity against weeds | – | degree of damage to the plants (% damage vs untreated control), Matricaria (Matricaria [1]; 60 g of ai./ha): 100%; degree of damage to the plants (% damage vs untreated control), Lolium (Lolium [4]; 60 g of ai./ha): 100%; degree of damage to the plants (% damage vs untreated control), Sorghum (Sorghum [5]; 60 g of ai./ha): 80%; degree of damage to the plants (% damage vs untreated control), Solanum (Solanum; 60 g of ai./ha): 100%; degree of damage to the plants (% damage vs untreated control), Poa (Poa; 60 g of ai./ha): 95%; degree of damage to the plants (% damage vs untreated control), Ambrosia (Ambrosia; 60 g of ai./ha): 100% |
| CCCOc1nn(C(=O)NS(=O)(=O)c2c(C)cccc2C(=O)OC)c(=O)n1C [Example 140] | – | – | – | very strong activity against weeds | – | – | – | – | – | – | very strong activity against weeds | 10% | degree of damage, Digitaria (Digitaria; 250 g of ai./ha): 95%; degree of damage, Stellaria (Stellaria; 250 g of ai./ha): 70%; degree of damage to the plants (% damage vs untreated control), Matricaria (Matricaria [1]; 30 g of ai./ha): 80%; degree of damage, Matricaria (Matricaria [2]; 250 g of ai./ha): 90%; degree of damage, Gallium (Gallium; 250 g of ai./ha): 95%; degree of damage, Amaranthus (Amaranthus; 250 g of ai./ha): 100%; degree of damage, Echinochloa (Echinochloa; 250 g of ai./ha): 90%; degree of damage to the plants (% damage vs untreated control), Sorghum (Sorghum [5]; 30 g of ai./ha): 95%; degree of damage to the plants (% damage vs untreated control), Solanum (Solanum; 30 g of ai./ha): 95%; degree of damage to the plants (% damage vs untreated control), Poa (Poa; 30 g of ai./ha): 95%; degree of damage to the plants (% damage vs untreated control), Ambrosia (Ambrosia; 30 g of ai./ha): 80%; degree of damage, Sorghum (Sorghum [7]; 250 g of ai./ha): 95% |
| CCCOc1nn(C(=O)[N-]S(=O)(=O)c2c(C)cccc2C(=O)OC)c(=O)n1C.[Na+] [Example 144] | – | – | – | very strong activity against weeds | – | – | – | – | – | – | very strong activity against weeds | – | degree of damage, Digitaria (Digitaria; 250 g of ai./ha): 95%; degree of damage, Stellaria (Stellaria; 250 g of ai./ha): 95%; degree of damage to the plants (% damage vs untreated control), Matricaria (Matricaria [1]; 125 g of ai./ha): 95%; degree of damage, Matricaria (Matricaria [2]; 250 g of ai./ha): 70%; degree of damage, Gallium (Gallium; 250 g of ai./ha): 95%; degree of damage, Amaranthus (Amaranthus; 250 g of ai./ha): 100%; degree of damage to the plants (% damage vs untreated control), Lolium (Lolium [4]; 125 g of ai./ha): 90%; degree of damage, Echinochloa (Echinochloa; 250 g of ai./ha): 95%; degree of damage to the plants (% damage vs untreated control), Sorghum (Sorghum [5]; 125 g of ai./ha): 95%; degree of damage, Lolium (Lolium [6]; 250 g of ai./ha): 70%; degree of damage to the plants (% damage vs untreated control), Solanum (Solanum; 125 g of ai./ha): 95%; degree of damage to the plants (% damage vs untreated control), Poa (Poa; 125 g of ai./ha): 90%; degree of damage to the plants (% damage vs untreated control), Ambrosia (Ambrosia; 125 g of ai./ha): 80%; degree of damage, Sorghum (Sorghum [7]; 250 g of ai./ha): 95% |
| CCSc1nn(C(=O)NS(=O)(=O)c2c(C)cccc2C(=O)OC)c(=O)n1C1CC1 [Example 159] | 60% | 100% | 100% | very strong activity against weeds | 95% | 95% | 80% | 60% | 10% | 70% | very strong activity against weeds | – | degree of damage to the plants (% damage vs untreated control), Matricaria (Matricaria [1]; 30 g of ai./ha): 95%; degree of damage to the plants (% damage vs untreated control), Lolium (Lolium [4]; 30 g of ai./ha): 90%; degree of damage to the plants (% damage vs untreated control), Sorghum (Sorghum [5]; 30 g of ai./ha): 60%; degree of damage to the plants (% damage vs untreated control), Solanum (Solanum; 30 g of ai./ha): 95%; degree of damage to the plants (% damage vs untreated control), Poa (Poa; 30 g of ai./ha): 95%; degree of damage to the plants (% damage vs untreated control), Ambrosia (Ambrosia; 30 g of ai./ha): 95% |
| COC(=O)c1cccc(C)c1S(=O)(=O)NC(=O)n1nc(OC)n(C)c1=O [Example 162] | 70% | 90% | 60% | very strong activity against weeds | – | – | 80% | 90% | – | 80% | very strong activity against weeds | 0% | degree of damage to the plants (% damage vs untreated control), Matricaria (Matricaria [1]; 60 g of ai./ha): 95%; degree of damage to the plants (% damage vs untreated control), Lolium (Lolium [4]; 60 g of ai./ha): 95%; degree of damage to the plants (% damage vs untreated control), Sorghum (Sorghum [5]; 60 g of ai./ha): 90%; degree of damage to the plants (% damage vs untreated control), Solanum (Solanum; 60 g of ai./ha): 95%; degree of damage to the plants (% damage vs untreated control), Poa (Poa; 60 g of ai./ha): 95%; degree of damage to the plants (% damage vs untreated control), Ambrosia (Ambrosia; 60 g of ai./ha): 80% |
| CCCOc1nn(C(=O)NS(=O)(=O)c2c(C)cccc2C(=O)OC)c(=O)n1C1CC1 [Example 165] | 50% | 95% | 95% | very strong activity against weeds | 95% | 95% | 80% | 50% | 0% | 90% | very strong activity against weeds | 10% | degree of damage to the plants (% damage vs untreated control), Matricaria (Matricaria [1]; 8 g of ai./ha): 90%; degree of damage to the plants (% damage vs untreated control), Sorghum (Sorghum [5]; 8 g of ai./ha): 70%; degree of damage to the plants (% damage vs untreated control), Solanum (Solanum; 8 g of ai./ha): 80%; degree of damage to the plants (% damage vs untreated control), Poa (Poa; 8 g of ai./ha): 90%; degree of damage to the plants (% damage vs untreated control), Ambrosia (Ambrosia; 8 g of ai./ha): 80% |
| COC(=O)c1cccc(C)c1S(=O)(=O)NC(=O)n1nc(OC(C)C)n(C2CC2)c1=O [Example 166] | 70% | 95% | 100% | very strong activity against weeds | 95% | 95% | 70% | 50% | 40% | 90% | very strong activity against weeds | – | degree of damage to the plants (% damage vs untreated control), Matricaria (Matricaria [1]; 15 g of ai./ha): 95%; degree of damage to the plants (% damage vs untreated control), Lolium (Lolium [4]; 15 g of ai./ha): 90%; degree of damage to the plants (% damage vs untreated control), Sorghum (Sorghum [5]; 15 g of ai./ha): 70%; degree of damage to the plants (% damage vs untreated control), Solanum (Solanum; 15 g of ai./ha): 90%; degree of damage to the plants (% damage vs untreated control), Poa (Poa; 15 g of ai./ha): 90%; degree of damage to the plants (% damage vs untreated control), Ambrosia (Ambrosia; 15 g of ai./ha): 80% |
